What was measured:
EFM7+/+ cells = assay: Survival (MTT conversion) 24 h after methyl methane-sulfonate treatment, wild-type cell line; format: cell-based, murine; conditions: 5 μM MMS, 24 h after treatment, FIG. 5D
Description: (§1) Cell proliferation and survival. Primary MEF+/+ and −/−, and TC-PTP+/+ and TC-PTP−/− cell, lines were seeded in 24-well cell culture plates at a density of […] in DMEM with 10% FBS. Cell number was determined after trypsinization by trypan blue exclusion or by MTT assay (Mosmann (1983) J. Immunol. Methods. 62:55-63) at day 1, 3, 5 and 7 after plating. Cells were treated with gamma- or UV-irradiation at doses indicated using a Gammacell 1000 (Atomic Energy of Canada) with a 137Cs source and Stratalinker (Stratagene) respectively. After irradiation, the cells were plated in triplicate on 24-well plates. Survival was evaluated by MTT viability assays 48 hr post-radiation.
(§2) The function of cell cycle checkpoints is to verify the physical status of the genomic DNA. […] To assess the effects of DNA-damaging agents such as γ-radiation, UV-C radiation and methyl methane-sulfonate (MMS) treatment on TC-PTP−/− cells, we first evaluated at different times after treatment, the effect of 1000 rads of γ-radiation on the survival of the EFM7+/+, EFM3+/− and EFM4−/− cells. […] Conversion of MTT was evaluated as a measure of survival at 8, 24 and 48 h after the treatment and it is expressed as the percentage of OD570 measurements of treated to untreated wells. […]
(§3) Another DNA-damaging agent used was MMS, which is a DNA alkylating agent that results in single-strand breaks. […] Results are expressed as in A.

EFM4−/− cells = assay: Survival (MTT conversion) 24 h after methyl methane-sulfonate treatment, TC-PTP knock-out cell line; format: cell-based, murine; conditions: 5 μM MMS, 24 h after treatment, FIG. 5D
Description: as §1, §2, §3

COS(C)(=O)=O [MMS, methyl methane-sulfonate]
viability after MMS treatment (EFM7+/+ cells): slight decrease
viability after MMS treatment (EFM4−/− cells): strong decrease in the viability
